This note sets out measurements from ChEMBL document CHEMBL4840373, “Aureonitol Analogues and Orsellinic Acid Esters Isolated from Chaetomium elatum and Their Antineuroinflammatory Activity” (J Nat Prod, 2021).

Active and inactive are the calls of the source. The rule behind the calls is not given here.

For data set [1], the system named is BV-2. Kind of data set: Cytotoxicity against mouse BV-2 cells assessed as reduction in cell viability at 120 uM after 24 hrs by MTT assay. The data set is classed as cell-based. Particulars: bv-2, 24 h. For orientation: Formazan colour is commonly taken as a measure of viable cells.
Data set [2] concerns BV-2. Description: Antiinflammatory activity in mouse BV-2 cells assessed as inhibition of LPS-induced NO production at 15 uM pretreated with compound for 1 hr followed by LPS stimulation for 24 hrs by Griess reagent based assay. Particulars: time 25.0 hrs. The class given is functional, cell-based. (In general: Nitrite, measured by Griess reagent, commonly stands in for NO production.)

The subject of data set [3] is BV-2. Kind of data set: Antiinflammatory activity in mouse BV-2 cells assessed as inhibition of LPS-induced NO production pretreated with compound for 1 hr followed by LPS stimulation for 24 hrs by Griess reagent based assay. The class given is functional, cell-based.
The subject of data set [4] is BV-2. Kind of data set: Antiinflammatory activity against LPS-induced mouse BV-2 cells assessed as inhibition of TLR-4 protein expression at 15 to 60 uM pretreated with compound for 1 hr followed by LPS stimulation after 24 hrs by Western blot analysis. Particulars: dose 15-60 µM, time 25.0 hrs. The data set is classed as functional, cell-based. A general note: Immunoblotting shows a protein as a band on a membrane.

Data set [5] deals with T1, Inhibitor of nuclear factor kappa-B kinase subunit beta (Mus musculus) (UniProt O88351).
T1 sequence (whole entry): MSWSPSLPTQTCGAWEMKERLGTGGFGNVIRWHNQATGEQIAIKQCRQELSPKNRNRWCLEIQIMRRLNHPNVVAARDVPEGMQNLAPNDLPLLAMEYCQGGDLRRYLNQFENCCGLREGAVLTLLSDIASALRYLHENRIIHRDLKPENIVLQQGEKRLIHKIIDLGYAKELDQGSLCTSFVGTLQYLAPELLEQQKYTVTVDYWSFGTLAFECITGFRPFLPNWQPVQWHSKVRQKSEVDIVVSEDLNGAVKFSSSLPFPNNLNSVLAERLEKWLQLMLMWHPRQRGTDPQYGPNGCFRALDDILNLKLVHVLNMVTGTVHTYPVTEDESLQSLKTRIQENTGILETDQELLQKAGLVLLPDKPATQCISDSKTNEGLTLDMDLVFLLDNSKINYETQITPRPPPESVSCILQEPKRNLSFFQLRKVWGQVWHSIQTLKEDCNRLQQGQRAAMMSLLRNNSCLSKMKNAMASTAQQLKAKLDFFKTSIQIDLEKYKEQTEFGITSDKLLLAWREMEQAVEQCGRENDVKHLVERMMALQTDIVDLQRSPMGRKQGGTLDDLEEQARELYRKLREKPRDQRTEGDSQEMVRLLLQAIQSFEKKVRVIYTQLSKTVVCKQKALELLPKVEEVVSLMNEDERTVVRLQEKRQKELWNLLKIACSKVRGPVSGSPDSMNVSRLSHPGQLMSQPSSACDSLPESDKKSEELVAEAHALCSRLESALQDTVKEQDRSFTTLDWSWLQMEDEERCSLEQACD
Kind of data set: Inhibition of IKappaB phosphorylation in LPS-stimulated mouse BV-2 cells at 15 to 60 uM pretreated with compound for 1 hr followed by LPS stimulation for 24 hrs by Western blot analysis. The class given is cell-based. Particulars: dose 15-60 µM, time 25.0 hrs.

For data set [6], the system named is BV-2. Description: Antiinflammatory activity against LPS-induced mouse BV-2 cells assessed as decrease in iNOS protein expression at 15 to 60 uM pretreated with compound for 1 hr followed by LPS stimulation after 24 hrs by Western blot analysis. The class given is functional, cell-based. Particulars: dose 15-60 µM, time 25.0 hrs.
Data set [7] has as its system BV-2. Description: Antiinflammatory activity against mouse BV-2 cells assessed as inhibition of LPS-induced TNFalpha production at 15 to 60 uM pretreated with compound for 1 hr followed by LPS stimulation for 24 hrs by ELISA. The class given is functional, cell-based. Particulars: dose 15-60 µM, time 25.0 hrs.
The subject of data set [8] is BV-2. Kind of data set: Antiinflammatory activity against mouse BV-2 cells assessed as inhibition of LPS-induced IL-6 production at 15 to 60 uM pretreated with compound for 1 hr followed by LPS stimulation for 24 hrs by ELISA. The class given is functional, cell-based. Particulars: dose 15-60 µM, time 25.0 hrs.
Data set [9] concerns BV-2. Kind of data set: Antiinflammatory activity against mouse BV-2 cells assessed as inhibition of LPS-induced ROS production at 15 to 60 uM pretreated with compound for 1 hr followed by LPS stimulation for 24 hrs by DCFH-DA staining based fluorescence microscopy. Particulars: dose 15-60 µM, time 25.0 hrs. The data set is classed as functional, cell-based.
Data set [10] concerns BV-2. Kind of data set: Antiinflammatory activity against LPS-induced mouse BV-2 cells assessed as decrease in COX2 protein expression at 15 to 60 uM pretreated with compound for 1 hr followed by LPS stimulation after 24 hrs by Western blot analysis. The class given is functional, cell-based. Particulars: dose 15-60 µM, time 25.0 hrs.
Data set [11] concerns the target MAP kinase p38 (Mus musculus) (UniProt P47811+O08911+Q9WUI1+Q9Z1B7). Description: Inhibition of p38 phosphorylation in LPS-stimulated mouse BV-2 cells at 15 to 60 uM pretreated with compound for 1 hr followed by LPS stimulation for 24 hrs by Western blot analysis. The data set is classed as cell-based. Particulars: dose 15-60 µM, time 25.0 hrs.
Data set [12] concerns BV-2. Description: Antiinflammatory activity against LPS-induced mouse BV-2 cells assessed as inhibition of NFkB protein expression at 15 to 60 uM pretreated with compound for 1 hr followed by LPS stimulation after 24 hrs by Western blot analysis. The class given is functional, cell-based. Particulars: dose 15-60 µM, time 25.0 hrs.
Data set [13] has as its system BV-2. Description: Antiinflammatory activity against mouse BV-2 cells assessed as inhibition of LPS-induced IL-1beta production at 15 to 60 uM pretreated with compound for 1 hr followed by LPS stimulation for 24 hrs by ELISA. The data set is classed as functional, cell-based. Particulars: dose 15-60 µM, time 25.0 hrs.

Consider `Cc1cc(O)cc(O)c1C(=O)OC[C@@]1(C[C@@H](C)O)C[C@@H](O)C(=O)O1`, for which the Activity entry in the data set with BV-2 [1] is given as “Non-Toxic”.
On to `C/C=C/C=C/[C@H]1CO[C@@H](/C=C/[C@@H](O)CO)[C@@H]1O`, for which the Activity result in the data set on BV-2 [1] is on record as “Non-Toxic”. The inhibition entry in the data set with BV-2 [2] was “Active”.
`C=C/C=C/[C@@H]1OC[C@@H](/C=C/C=C/C)[C@@H]1O`: the Activity entry in the data set on BV-2 [1] is given as “Non-Toxic”.
Consider `C=C/C=C/[C@@H]1OC[C@H](/C=C/C[C@H](C)O)[C@H]1O`, for which, in the data set on BV-2 [1], the Activity entry is “Non-Toxic”. For the same compound, the inhibition entry in the data set on BV-2 [2] is “Active”.
Regarding `C=C/C=C/[C@@H]1OC[C@H](/C=C/[C@@H](O)[C@H](C)O)[C@H]1O`, in the data set on BV-2 [1], the Activity result is given as “Non-Toxic”.
As for `C=C/C=C/[C@@H]1OC[C@H](/C=C/[C@@H](O)[C@@H](C)O)[C@H]1O`, the Activity entry in the data set with BV-2 [1] is “Non-Toxic”.
As for `Cc1cc(O)cc(O)c1C(=O)OCC(=O)[C@@H](O)[C@H](C)O` [GLOBOSUMONE C], the Activity entry in the data set on BV-2 [1] was “Non-Toxic”.
The IC50 is the concentration that inhibits the measured activity by half. Consider `C/C=C/C=C/[C@H]1CO[C@@H](/C=C/[C@H](O)CO)[C@@H]1O`, for which, in the data set on BV-2 [3], the IC50 came out at 16.6 µM. The inhibition entry (in the data set with BV-2 [4]; in [5]; in data set [11]; in the data set with BV-2 [12]) was “Active” throughout. The Activity result in the data set on BV-2 [1] is listed as “Non-Toxic”. Besides, the outcome in the data set with BV-2 [6], in the data set on BV-2 [7], in the data set with BV-2 [8], with BV-2 [9], in the data set on BV-2 [10] and in the data set with BV-2 [13] was Active.
For `C=C/C=C/[C@H]1OC[C@@H]([C@@H](O)/C=C/[C@@H](C)O)[C@@H]1O`, the Activity result in the data set on BV-2 [1] was “Non-Toxic”. The inhibition result in the data set on BV-2 [2] is “Active”.
For the compound `C=C/C=C/[C@@H]1OC[C@H](/C=C/C=C/C)[C@H]1O`, in the data set on BV-2 [1], the Activity result was “Non-Toxic”.
